Holding throughout (assay type): in vivo
Series [1] deals with transplanted rice plant. Put plainly: Test Example 1: effect on crop, application before weed generation in submerged conditions (symbol a). The following applies: application herbicide amount 320 g/ha. An outline of the steps:
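Alluvial soil pots flooded to 4 cm water, sown with Echinochloa oryzacola, Scirpus juncoides and Monochoria vaginalis, then transplanted with 2.5 leaf stage rice seedlings; pre-emergence application. Greenhouse 25° C. to 30° C.; scored 0–5 by herbicidal ratio 3 weeks after application.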

In series [2] the test system is Scirpus juncoides. Kind of series: Test Example 2: herbicidal activity, application during weed generation in submerged conditions (symbol B). The following applies: Table 23; application herbicide amount 320 g/ha; grade 0-5 by criteria of Test Example 1. An outline of the steps:
(§1)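 Alluvial soil in pots was flooded to a 4 cm water depth and sown with a mix of the three weed species, then grown in a greenhouse at 25° C. to 30° C. At the one- to two-leaf stage, an emulsifiable formulation diluted in water to a set dose was applied to the water surface. Effects were scored visually 3 weeks later.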

The test system of series [3] is Monochoria vaginalis. Put plainly: Test Example 2: herbicidal activity, application during weed generation in submerged conditions (symbol C). The conditions noted are these: Table 23; application herbicide amount 320 g/ha; grade 0-5 by criteria of Test Example 1. Summed up: as §1
The subject of series [4] is Echinochloa crus-galli var. crus-galli. Put plainly: Test Example 3: herbicidal effect by foliage application, Wagner pot (symbol H). The following applies: application herbicide amount 320 g/ha. An outline of the steps: (§2)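 Weeds and rice were sown in alluvial soil under 0.1–0.5 cm of standing water and grown for 14 days in a 25–30 °C greenhouse. An emulsion of the compound, diluted in water to a set dose, was sprayed evenly onto the foliage. Effect was scored against fixed criteria 3 weeks after treatment.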

Series [5] concerns Leptochloa chinensis. Put plainly: Test Example 3: herbicidal effect by foliage application, Wagner pot (symbol D). The following applies: application herbicide amount 320 g/ha. Summed up:
as §2

Series [6] concerns Cyperus difformis. Kind of series: Test Example 3: herbicidal effect by foliage application, Wagner pot (symbol E). The conditions noted are these: application herbicide amount 320 g/ha. An outline of the steps: as §2
Series [7] relates to directly sowed rice plant. Kind of series: Test Example 3: effect on crop by foliage application, Wagner pot (symbol b). The conditions noted are these: application herbicide amount 320 g/ha. An outline of the steps:
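Steps: fill a 1/10000-are Wagner pot with alluvial soil; add water and mix to submerge at 0.1–0.5 cm depth; sow rice plus Echinochloa crus-galli var. crus-galli, Leptochloa chinensis and Cyperus difformis; grow in a 25–30 °C greenhouse.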

Series [8] relates to Echinochloa crus-galli var. crus-galli. Put plainly: Test Example 4: herbicidal effect by soil treatment (symbol H). The following applies: application herbicide amount 320 g/ha. Summed up:
(§3)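 Seeds were sown in sterilized diluvial soil, covered with about 1.5 cm of soil, and the soil surface was sprayed with a water-diluted emulsion of the compound at a predetermined rate. Plants grew in a greenhouse at 25° C. to 30° C.; effects were scored visually 3 weeks after application.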

The test system of series [9] is Apera spica-venti. Put plainly: Test Example 4: herbicidal effect by soil treatment (symbol L). The following applies: application herbicide amount 320 g/ha. An outline of the steps:
as §3

The subject of series [10] is Chenopodium album. Kind of series: Test Example 4: herbicidal effect by soil treatment (symbol O). The following applies: application herbicide amount 320 g/ha. Summed up:
as §3

The test system of series [11] is beet. Put plainly: Test Example 4: effect on crop by soil treatment (symbol f). The conditions noted are these: application herbicide amount 320 g/ha. Summed up: (§4)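 Grown at 25° C. to 30° C. in a greenhouse, the crops came from seed sown spot-wise in sterilized diluvial soil under roughly 1.5 cm of covering soil.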
The subject of series [12] is rapeseed. Kind of series: Test Example 4: effect on crop by soil treatment (symbol g). The conditions noted are these: application herbicide amount 320 g/ha. Summed up:
as §4

Series [13] concerns Apera spica-venti. Put plainly: Test Example 5: herbicidal effect by foliage application, plastic box (symbol L). The following applies: 320 g/ha, 3 weeks after application. An outline of the steps: (§5)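 Sowing in sterilized diluvial soil, 14 days' greenhouse growth at 25° C. to 30° C., then uniform small-sprayer foliar application of aqueous emulsion dilution; plants scored three weeks afterwards.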

Series [14] relates to Abutilon theophrasti. Kind of series: Test Example 5: herbicidal effect by foliage application, plastic box (symbol M). The following applies: 320 g/ha, 3 weeks after application. An outline of the steps: as §5
For series [15], the system named is Chenopodium album. Put plainly: Test Example 5: herbicidal effect by foliage application, plastic box (symbol O). The conditions noted are these: 320 g/ha, 3 weeks after application. An outline of the steps:
as §5

For series [16], the system named is Stellaria media. Put plainly: Test Example 5: herbicidal effect by foliage application, plastic box (symbol P). The following applies: 320 g/ha, 3 weeks after application. An outline of the steps: as §5

`CON=C(C)CC1CC(OCOC(=O)c2ccccc2)=C(c2c(C)cc(-c3ccc(Cl)cc3)cc2C)C1=O` (stereo not shown) [6-083]: the “Effect grade on crop, a: transplanted rice plant” value (“Effect grade on crop” below) in [1] is reported as 5 (Herbicidal ratio of 90% or more (almost completely withered)). For the same compound, in series [2], the “Herbicidal effect grade, B: Scirpus juncoides” value (shortened to “Herbicidal effect grade, B”) was 3 (Herbicidal ratio of 40% or higher and lower than 70%). Further, the “Herbicidal effect grade, C: Monochoria vaginalis” value (from here on “Herbicidal effect grade, C”) in series [3] was 4 (Herbicidal ratio of 70% or higher and lower than 90%). For the same compound, the “herbicidal effect on H (Echinochloa crus-galli var. crus-galli), grade 0-5” value (“herbicidal effect on H” below) in series [4] is listed as 5 (Herbicidal ratio of 90% or more (almost completely withered)). Moreover, the “herbicidal effect on D (Leptochloa chinensis), grade 0-5” value (“herbicidal effect on D” for short) in series [5] is 5 (Herbicidal ratio of 90% or more (almost completely withered)). Moreover, the “herbicidal effect on E, grade 0-5” value in series [6] is on record as 5 (Herbicidal ratio of 90% or more (almost completely withered)). The “effect on crop b (directly sowed rice plant), grade 0-5” value (“effect on crop b” below) in series [7] is 5 (Herbicidal ratio of 90% or more (almost completely withered)). The “H: Echinochloa crus-galli var. crus-galli, herbicidal effect grade” value in [8] is 0 (Herbicidal ratio of 5% or lower (almost no effect)). In series [9], the “L: Apera spica-venti, herbicidal effect grade” value was 5 (Herbicidal ratio of 90% or more (almost completely withered)). In addition, in [10], the “O: Chenopodium album, herbicidal effect grade” value is 0 (Herbicidal ratio of 5% or lower (almost no effect)). For the same compound, the “f: beet, effect on crop grade” value in series [11] was 0 (Herbicidal ratio of 5% or lower (almost no effect)). Further, in [12], the “g: rapeseed, effect on crop grade” value is given as 0 (Herbicidal ratio of 5% or lower (almost no effect)). Moreover, the “L: Apera spica-venti, herbicidal effect (criteria of Test Example 1)” value in series [13] was 5 (Herbicidal ratio of 90% or more (almost completely withered)). Also, the “M: Abutilon theophrasti, herbicidal effect (criteria of Test Example 1)” value (from here on “M: Abutilon theophrasti”) in series [14] is 5 (Herbicidal ratio of 90% or more (almost completely withered)). Moreover, in series [15], the “O: Chenopodium album, herbicidal effect (criteria of Test Example 1)” value is listed as 5 (Herbicidal ratio of 90% or more (almost completely withered)). The “P: Stellaria media, herbicidal effect (criteria of Test Example 1)” value (shortened to “P: Stellaria media, herbicidal effect”) in series [16] was 1 (Herbicidal ratio of 5% or higher and lower than 20%).

On to `CON=C(C)CC1CC(O)=C(c2c(C)cc(-c3ccccc3)cc2OC)C1=O` (stereo not shown) [6-099], for which the “Effect grade on crop” value in series [1] is 5 (Herbicidal ratio of 90% or more (almost completely withered)). Further, the “Herbicidal effect grade, B” value in series [2] is given as 5 (Herbicidal ratio of 90% or more (almost completely withered)). Also, the “Herbicidal effect grade, C” value in [3] is recorded as 5 (Herbicidal ratio of 90% or more (almost completely withered)). The “herbicidal effect on H” value in series [4] is given as 5 (Herbicidal ratio of 90% or more (almost completely withered)). Moreover, the “herbicidal effect on D” value in series [5] is recorded as 5 (Herbicidal ratio of 90% or more (almost completely withered)). Further, the “herbicidal effect on E, grade 0-5” value in [6] is given as 5 (Herbicidal ratio of 90% or more (almost completely withered)). Further, in series [7], the “effect on crop b” value is listed as 5 (Herbicidal ratio of 90% or more (almost completely withered)). Moreover, in series [8], the “Herbicidal effect grade, H: Echinochloa crus-galli var. crus-galli” value (shortened to “Herbicidal effect grade, H”) is 5 (Herbicidal ratio of 90% or more (almost completely withered)). In series [9], the “Herbicidal effect grade, L: Apera spica-venti” value (“Herbicidal effect grade, L” below) is on record as 5 (Herbicidal ratio of 90% or more (almost completely withered)). The “Herbicidal effect grade, O: Chenopodium album” value (“Herbicidal effect grade, O” below) in series [10] is 4 (Herbicidal ratio of 70% or higher and lower than 90%). Further, the “Effect on crop grade, f: beet” value in series [11] is 2 (Herbicidal ratio of 20% or higher and lower than 40%). In addition, in [12], the “Effect on crop grade, g: rapeseed” value was 5 (Herbicidal ratio of 90% or more (almost completely withered)). In addition, in series [13], the “L: Apera spica-venti, herbicidal effect (criteria of Test Example 1)” value is given as 5 (Herbicidal ratio of 90% or more (almost completely withered)). Moreover, the “M: Abutilon theophrasti” value in series [14] is 3 (Herbicidal ratio of 40% or higher and lower than 70%). For the same compound, the “O: Chenopodium album, herbicidal effect (criteria of Test Example 1)” value in [15] is reported as 5 (Herbicidal ratio of 90% or more (almost completely withered)). The “P: Stellaria media, herbicidal effect” value in series [16] is 4 (Herbicidal ratio of 70% or higher and lower than 90%).

As to `CON=C(C)CC1CC(OC(=O)COc2ccccc2)=C(c2c(C)cc(-c3ccccc3)cc2OC)C1=O` (stereo not shown) [6-100], the “Effect grade on crop” value in series [1] is 5 (Herbicidal ratio of 90% or more (almost completely withered)). Further, the “Herbicidal effect grade, B” value in series [2] is on record as 5 (Herbicidal ratio of 90% or more (almost completely withered)). Moreover, the “Herbicidal effect grade, C” value in [3] was 5 (Herbicidal ratio of 90% or more (almost completely withered)). The “herbicidal effect on H” value in series [4] was 5 (Herbicidal ratio of 90% or more (almost completely withered)). Besides, in series [5], the “herbicidal effect on D” value is given as 5 (Herbicidal ratio of 90% or more (almost completely withered)). Moreover, the “herbicidal effect on E, grade 0-5” value in [6] is 5 (Herbicidal ratio of 90% or more (almost completely withered)). Moreover, in series [7], the “effect on crop b” value is recorded as 5 (Herbicidal ratio of 90% or more (almost completely withered)). In series [8], the “Herbicidal effect grade, H” value is reported as 5 (Herbicidal ratio of 90% or more (almost completely withered)). For the same compound, the “Herbicidal effect grade, L” value in series [9] is 5 (Herbicidal ratio of 90% or more (almost completely withered)). The “Herbicidal effect grade, O” value in series [10] is 5 (Herbicidal ratio of 90% or more (almost completely withered)). For the same compound, in [11], the “Effect on crop grade, f: beet” value was 0 (Herbicidal ratio of 5% or lower (almost no effect)). Also, the “Effect on crop grade, g: rapeseed” value in series [12] is given as 5 (Herbicidal ratio of 90% or more (almost completely withered)). For the same compound, the “L: Apera spica-venti, herbicidal effect (criteria of Test Example 1)” value in [13] is given as 5 (Herbicidal ratio of 90% or more (almost completely withered)). In addition, the “M: Abutilon theophrasti” value in [14] is 3 (Herbicidal ratio of 40% or higher and lower than 70%). For the same compound, in [15], the “O: Chenopodium album, herbicidal effect (criteria of Test Example 1)” value is 4 (Herbicidal ratio of 70% or higher and lower than 90%). Besides, the “P: Stellaria media, herbicidal effect” value in series [16] was 3 (Herbicidal ratio of 40% or higher and lower than 70%).

As to `CON=C(C)CC1CC(O)=C(c2c(OC)cc(C)cc2OC)C1=O` (stereo not shown) [6-103], the “Effect grade on crop” value in series [1] is 5 (Herbicidal ratio of 90% or more (almost completely withered)). In addition, in [2], the “Herbicidal effect grade, B” value is 0 (Herbicidal ratio of 5% or lower (almost no effect)). The “Herbicidal effect grade, C” value in series [3] was 0 (Herbicidal ratio of 5% or lower (almost no effect)). The “herbicidal effect on H” value in series [4] was 5 (Herbicidal ratio of 90% or more (almost completely withered)). Moreover, the “herbicidal effect on D” value in series [5] is reported as 5 (Herbicidal ratio of 90% or more (almost completely withered)). Further, in [6], the “herbicidal effect on E, grade 0-5” value is 5 (Herbicidal ratio of 90% or more (almost completely withered)). In series [7], the “effect on crop b” value is on record as 5 (Herbicidal ratio of 90% or more (almost completely withered)). The “Herbicidal effect grade, H” value in series [8] is 5 (Herbicidal ratio of 90% or more (almost completely withered)). Besides, the “Herbicidal effect grade, L” value in [9] is recorded as 5 (Herbicidal ratio of 90% or more (almost completely withered)). Besides, the “Herbicidal effect grade, O” value in [10] is on record as 0 (Herbicidal ratio of 5% or lower (almost no effect)). Also, in [11], the “Effect on crop grade, f: beet” value was 0 (Herbicidal ratio of 5% or lower (almost no effect)). Besides, the “Effect on crop grade, g: rapeseed” value in series [12] is given as 0 (Herbicidal ratio of 5% or lower (almost no effect)). Moreover, the “L: Apera spica-venti, herbicidal effect (criteria of Test Example 1)” value in series [13] is given as 5 (Herbicidal ratio of 90% or more (almost completely withered)). In addition, the “M: Abutilon theophrasti” value in series [14] is 2 (Herbicidal ratio of 20% or higher and lower than 40%). Also, in series [15], the “O: Chenopodium album, herbicidal effect (criteria of Test Example 1)” value is 0 (Herbicidal ratio of 5% or lower (almost no effect)). Also, the “P: Stellaria media, herbicidal effect” value in series [16] is 1 (Herbicidal ratio of 5% or higher and lower than 20%).

For the origin of these results see patent US11000033B2, “Ketone or oxime compound, and herbicide” (NISSAN CHEMICAL CORPORATION, priority 2014, dated 2021).
